Assay results: patent US9144229B2, “Tissue specific expression of antibodies in chickens” (Synageva BioPharma Corp., priority 2002, dated 2015)

Test system: chicken embryonic stem cells
Assay: Titration kill curve of chicken ES cells under puromycin or neomycin selection
Assay type: cell-based
Parameters: key to Morphology of cES cells: ES cells are present.; ES cells are differentiated.; gone: no morphologically recognizable cells are present
Protocol: In a preferred embodiment, the concentration of puromycin required for selecting transfected cells is calculated as a titration kill curve. Titration kill curves for chicken embryonic stem cells are established by exposing cells in culture to puromycin concentrations varying from 0.0 to 1.0 μg/ml for 10 days (Table 7) and neomycin concentrations varying from 0.0 to 200 μg/ml (Table 8). The medium is changed every 2 days and fresh puromycin or neomycin is added. […] Puromycin concentrations of 0.3-1.0 μg/ml are used for selection of the transfected cultures. Neomycin concentrations over 40 μg/ml eliminated all cES cells within 7 days (Table 8).

Substance: neomycin
- Morphology of cES cells (neomycin 10 μg/ml, day 1): ES
- Morphology of cES cells (neomycin 10 μg/ml, day 2): ES
- Morphology of cES cells (neomycin 10 μg/ml, day 3): ES
- Morphology of cES cells (neomycin 10 μg/ml, day 4): ES
- Morphology of cES cells (neomycin 10 μg/ml, day 5): ES
- Morphology of cES cells (neomycin 10 μg/ml, day 6): ES
- Morphology of cES cells (neomycin 10 μg/ml, day 7): ES
- Morphology of cES cells (neomycin 10 μg/ml, day 8): ES
- Morphology of cES cells (neomycin 10 μg/ml, day 9): ES
- Morphology of cES cells (neomycin 10 μg/ml, day 10): ES
- Morphology of cES cells (neomycin 20 μg/ml, day 1): ES
- Morphology of cES cells (neomycin 20 μg/ml, day 2): ES
- Morphology of cES cells (neomycin 20 μg/ml, day 3): ES
- Morphology of cES cells (neomycin 20 μg/ml, day 4): ES
- Morphology of cES cells (neomycin 20 μg/ml, day 5): ES
- Morphology of cES cells (neomycin 20 μg/ml, day 6): ES
- Morphology of cES cells (neomycin 20 μg/ml, day 7): ES
- Morphology of cES cells (neomycin 20 μg/ml, day 8): ES
- Morphology of cES cells (neomycin 20 μg/ml, day 9): ES
- Morphology of cES cells (neomycin 20 μg/ml, day 10): ES
- Morphology of cES cells (neomycin 30 μg/ml, day 1): ES
- Morphology of cES cells (neomycin 30 μg/ml, day 2): ES
- Morphology of cES cells (neomycin 30 μg/ml, day 3): ES
- Morphology of cES cells (neomycin 30 μg/ml, day 4): ES
- Morphology of cES cells (neomycin 30 μg/ml, day 5): ES
- Morphology of cES cells (neomycin 30 μg/ml, day 6): ES
- Morphology of cES cells (neomycin 30 μg/ml, day 7): ES/Diff
- Morphology of cES cells (neomycin 30 μg/ml, day 8): ES/diff
- Morphology of cES cells (neomycin 30 μg/ml, day 9): Diff
- Morphology of cES cells (neomycin 30 μg/ml, day 10): Diff/
- Morphology of cES cells (neomycin 40 μg/ml, day 1): ES
- Morphology of cES cells (neomycin 40 μg/ml, day 2): ES
- Morphology of cES cells (neomycin 40 μg/ml, day 3): ES
- Morphology of cES cells (neomycin 40 μg/ml, day 4): ES
- Morphology of cES cells (neomycin 40 μg/ml, day 5): ES/Diff
- Morphology of cES cells (neomycin 40 μg/ml, day 6): Diff/
- Morphology of cES cells (neomycin 40 μg/ml, day 7): dead
- Morphology of cES cells (neomycin 40 μg/ml, day 8): gone
- Morphology of cES cells (neomycin 40 μg/ml, day 9): gone
- Morphology of cES cells (neomycin 40 μg/ml, day 10): gone
- Morphology of cES cells (neomycin 50 μg/ml, day 1): ES
- Morphology of cES cells (neomycin 50 μg/ml, day 2): ES
- Morphology of cES cells (neomycin 50 μg/ml, day 3): ES
- Morphology of cES cells (neomycin 50 μg/ml, day 4): ES/Diff
- Morphology of cES cells (neomycin 50 μg/ml, day 5): ES/Diff
- Morphology of cES cells (neomycin 50 μg/ml, day 6): Diff/
- Morphology of cES cells (neomycin 50 μg/ml, day 7): Dead/
- Morphology of cES cells (neomycin 50 μg/ml, day 8): gone
- Morphology of cES cells (neomycin 50 μg/ml, day 9): gone
- Morphology of cES cells (neomycin 50 μg/ml, day 10): gone
- Morphology of cES cells (neomycin 60 μg/ml, day 1): ES
- Morphology of cES cells (neomycin 60 μg/ml, day 2): ES
- Morphology of cES cells (neomycin 60 μg/ml, day 3): ES
- Morphology of cES cells (neomycin 60 μg/ml, day 4): gone
- Morphology of cES cells (neomycin 60 μg/ml, day 5): gone
- Morphology of cES cells (neomycin 60 μg/ml, day 6): gone
- Morphology of cES cells (neomycin 60 μg/ml, day 7): gone
- Morphology of cES cells (neomycin 60 μg/ml, day 8): gone
- Morphology of cES cells (neomycin 60 μg/ml, day 9): gone
- Morphology of cES cells (neomycin 60 μg/ml, day 10): gone
- Morphology of cES cells (neomycin 100 μg/ml, day 1): ES/Diff
- Morphology of cES cells (neomycin 100 μg/ml, day 2): Diff
- Morphology of cES cells (neomycin 100 μg/ml, day 3): dead
- Morphology of cES cells (neomycin 100 μg/ml, day 4): gone
- Morphology of cES cells (neomycin 100 μg/ml, day 5): gone
- Morphology of cES cells (neomycin 100 μg/ml, day 6): gone
- Morphology of cES cells (neomycin 100 μg/ml, day 7): gone
- Morphology of cES cells (neomycin 100 μg/ml, day 8): gone
- Morphology of cES cells (neomycin 100 μg/ml, day 9): gone
- Morphology of cES cells (neomycin 100 μg/ml, day 10): gone
- Morphology of cES cells (neomycin 150 μg/ml, day 2): dead
- Morphology of cES cells (neomycin 150 μg/ml, day 3): dead
- Morphology of cES cells (neomycin 150 μg/ml, day 4): gone
- Morphology of cES cells (neomycin 150 μg/ml, day 5): gone
- Morphology of cES cells (neomycin 150 μg/ml, day 6): gone
- Morphology of cES cells (neomycin 150 μg/ml, day 7): gone
- Morphology of cES cells (neomycin 150 μg/ml, day 8): gone
- Morphology of cES cells (neomycin 150 μg/ml, day 9): gone
- Morphology of cES cells (neomycin 150 μg/ml, day 10): gone
- Morphology of cES cells (neomycin 200 μg/ml, day 2): dead
- Morphology of cES cells (neomycin 200 μg/ml, day 3): gone
- Morphology of cES cells (neomycin 200 μg/ml, day 4): gone
- Morphology of cES cells (neomycin 200 μg/ml, day 5): gone
- Morphology of cES cells (neomycin 200 μg/ml, day 6): gone
- Morphology of cES cells (neomycin 200 μg/ml, day 7): gone
- Morphology of cES cells (neomycin 200 μg/ml, day 8): gone
- Morphology of cES cells (neomycin 200 μg/ml, day 9): gone
- Morphology of cES cells (neomycin 200 μg/ml, day 10): gone
- concentration that eliminated all cES cells (neomycin, within 7 days): over 40 μg/ml
